{
  "source": "patent US20250073340A1",
  "about": "“SPIROCYCLIC MDM2 MODULATOR AND USES THEREOF” (Newave Pharmaceutical Inc., priority 2021, published 2025)",
  "key": {"MDM2": {"biological_target": "MDM2 (Homo sapiens (Human), UniProt Q00987)", "sequence (Q00987 whole entry)": "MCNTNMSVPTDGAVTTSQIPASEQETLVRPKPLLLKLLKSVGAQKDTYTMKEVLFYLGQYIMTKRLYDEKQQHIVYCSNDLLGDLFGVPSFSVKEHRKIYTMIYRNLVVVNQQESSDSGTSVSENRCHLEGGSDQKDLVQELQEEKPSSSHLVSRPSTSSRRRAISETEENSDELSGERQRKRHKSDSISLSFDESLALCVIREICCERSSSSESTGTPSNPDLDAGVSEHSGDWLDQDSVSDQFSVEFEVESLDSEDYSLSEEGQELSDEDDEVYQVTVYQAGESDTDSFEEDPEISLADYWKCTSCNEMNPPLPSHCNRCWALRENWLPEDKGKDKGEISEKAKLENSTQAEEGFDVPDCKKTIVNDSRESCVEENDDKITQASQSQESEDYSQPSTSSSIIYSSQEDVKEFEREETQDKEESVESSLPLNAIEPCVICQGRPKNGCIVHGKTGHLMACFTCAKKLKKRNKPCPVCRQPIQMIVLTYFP", "experiment": "In vitro MDM2 HTRF assay (inhibition of p53-MDM2 interaction)", "format": "binding", "settings": "GST-MDM2 / biotinylated p53 peptide"}, "[1]": {"tested_on": "BCL-2-dependent acute lymphoblastic leukemia (ALL) cell line RS4;11 overexpressing Bcl-2 G101V", "experiment": "cells", "format": "cell-based", "settings": "Homo sapiens, RS4-11; about 72 hours, ATPlite luminescence; read-out: RS4;11-G101V IC50", "protocol": "Biological Example 2: In vitro Anti-proliferation Assay in BCL-2-dependent acute lymphoblastic leukemia (ALL) cell line RS4; 11 overexpressing Bcl-2 G101V\nCell antiproliferation was assayed by PerkinElmer ATPlite™ Luminescence Assay System. Briefly, the various test cancer cell lines were plated at a density of about 1×10^4 cells per well in Costar 96-well plates, and were incubated with different concentrations of compounds for about 72 hours in medium supplemented with 5% FBS or 10% normal human serum (NHS). One lyophilized substrate solution vial was then reconstituted by adding 5 mL of substrate buffer solution, and was agitated gently until the solution was homogeneous. About 50 μL of mammalian cell lysis solution was added to 100 μL of cell suspension per well of a microplate, and the plate was shaken for about five minutes in an orbital shaker at −700 rpm. This procedure was used to lyse the cells and to stabilize the ATP. Next, 50 μL substrate solution was added to the wells and microplate was shaken for five minutes in an orbital shaker at −700 rpm. Finally, the luminescence was measured by a PerkinElmer TopCount® Microplate Scintillation Counter. Such assays, carried out with a range of doses of test compounds, allowed the determination of the cellular anti-antiproliferative IC50 of the compounds of the present invention."}},
  "data": [
    {"smiles": "COc1cc(C(=O)N2CC[C@H](C#Cc3cccc4c3CN(C3CCC(=O)NC3=O)C4=O)C2)ccc1NC(=O)[C@@H]1N[C@@H](CC(C)(C)C)[C@@]2(CNc3cc(Cl)ccc32)[C@H]1c1cccc(Cl)c1F", "note": "(stereo partly drawn) [Example 48, (2′S,3S,4′S,5′R)-6-chloro-4′-(3-chloro-2-fluorophenyl)-2′-(2,2-dimethylpropyl)-N-{4-[(3R)-3-{2-[2-(2,6-dioxopiperidin-3-yl)-1-oxo-3H-isoindol-4-yl]ethynyl}pyrrolidine-1-carbonyl]-2-methoxyphenyl}-1,2-dihydrospiro[indole-3,3′-pyrrolidine]-5′-carboxamide]", "values": [
      {"measurement": "IC50", "setting": "MDM2", "value": 1.21, "unit": "nM"},
      {"measurement": "IC50", "setting": "[1]", "value": 12.4, "unit": "nM"}
    ]},
    {"smiles": "COc1cc(C(=O)N2CC[C@@H](C#Cc3cccc4c3CN(C3CCC(=O)NC3=O)C4=O)C2)ccc1NC(=O)[C@@H]1N[C@@H](CC(C)(C)C)[C@@]2(CNc3cc(Cl)ccc32)[C@H]1c1cccc(Cl)c1F", "note": "(stereo partly drawn) [Example 49, (2′S,3S,4′S,5′R)-6-chloro-4′-(3-chloro-2-fluorophenyl)-2′-(2,2-dimethylpropyl)-N-{4-[(3S)-3-{2-[2-(2,6-dioxopiperidin-3-yl)-1-oxo-3H-isoindol-4-yl]ethynyl}pyrrolidine-1-carbonyl]-2-methoxyphenyl}-1,2-dihydrospiro[indole-3,3′-pyrrolidine]-5′-carboxamide]", "values": [
      {"measurement": "IC50", "setting": "MDM2", "value": 1.05, "unit": "nM"},
      {"measurement": "IC50", "setting": "[1]", "value": 14.1, "unit": "nM"}
    ]},
    {"smiles": "COc1cc(C(=O)N2CCC[C@H](CC#Cc3cccc4c3CN(C3CCC(=O)NC3=O)C4=O)C2)ccc1NC(=O)[C@@H]1N[C@@H](CC(C)(C)C)[C@@]2(CNc3cc(Cl)ccc32)[C@H]1c1cccc(Cl)c1F", "note": "(stereo partly drawn) [Example 24, (2′S,3S,4′S,5′R)-6-chloro-4′-(3-chloro-2-fluorophenyl)-N-(4-((3R)-3-(3-(2-(2,6-dioxopiperidin-3-yl)-1-oxoisoindolin-4-yl)prop-2-yn-1-yl)piperidine-1-carbonyl)-2-methoxyphenyl)-2′-neopentylspiro[indoline-3,3′-pyrrolidine]-5′-carboxamide]", "values": [
      {"measurement": "IC50", "setting": "MDM2", "value": 2.97, "unit": "nM"},
      {"measurement": "IC50", "setting": "[1]", "value": 21.1, "unit": "nM"}
    ]},
    {"smiles": "COc1cc(C(=O)N2CCC[C@@H](CC#Cc3cccc4c3CN(C3CCC(=O)NC3=O)C4=O)C2)ccc1NC(=O)[C@@H]1N[C@@H](CC(C)(C)C)[C@@]2(CNc3cc(Cl)ccc32)[C@H]1c1cccc(Cl)c1F", "note": "(stereo partly drawn) [Example 25, (2′S,3S,4′S,5′R)-6-chloro-4′-(3-chloro-2-fluorophenyl)-N-(4-((3S)-3-(3-(2-(2,6-dioxopiperidin-3-yl)-1-oxoisoindolin-4-yl)prop-2-yn-1-yl)piperidine-1-carbonyl)-2-methoxyphenyl)-2′-neopentylspiro[indoline-3,3′-pyrrolidine]-5′-carboxamide]", "values": [
      {"measurement": "IC50", "setting": "MDM2", "value": 3.72, "unit": "nM"},
      {"measurement": "IC50", "setting": "[1]", "value": 21.6, "unit": "nM"}
    ]},
    {"smiles": "COc1cc(C(=O)N2CCC(C#Cc3cccc4c3CN(C3CCC(=O)NC3=O)C4=O)CC2)ccc1NC(=O)[C@@H]1N[C@@H](CC(C)(C)C)[C@@]2(CNc3cc(Cl)ccc32)[C@H]1c1cccc(Cl)c1F", "note": "(stereo partly drawn) [Example 20, (2′S,3S,4′S,5′R)-6-chloro-4′-(3-chloro-2-fluorophenyl)-2′-(2,2-dimethylpropyl)-N-[4-(4-{2-[2-(2,6-dioxopiperidin-3-yl)-1-oxo-3H-isoindol-4-yl]ethynyl}piperidine-1-carbonyl)-2-methoxyphenyl]-1,2-dihydrospiro[indole-3,3′-pyrrolidine]-5′-carboxamide]", "values": [
      {"measurement": "IC50", "setting": "MDM2", "value": 3.67, "unit": "nM"},
      {"measurement": "IC50", "setting": "[1]", "value": 31.9, "unit": "nM"}
    ]},
    {"smiles": "COc1cc(C(=O)NCCCC#Cc2cccc3c2CN([C@H]2CCC(=O)NC2=O)C3=O)ccc1NC(=O)[C@@H]1N[C@@H](CC(C)(C)C)[C@@]2(CNc3cc(Cl)ccc32)[C@H]1c1cccc(Cl)c1F", "note": "[Example 18, (2′S,3S,4′S,5′R)-6-chloro-4′-(3-chloro-2-fluorophenyl)-N-(4-((5-(2-((S)-2,6-dioxopiperidin-3-yl)-1-oxoisoindolin-4-yl)pent-4-yn-1-yl)carbamoyl)-2-methoxyphenyl)-2′-neopentylspiro[indoline-3,3′-pyrrolidine]-5′-carboxamide]", "values": [
      {"measurement": "IC50", "setting": "MDM2", "value": 1.3, "unit": "nM"},
      {"measurement": "IC50", "setting": "[1]", "value": 5.91, "unit": "nM"}
    ]},
    {"smiles": "COc1cc(N2CCC3(CC2)CC([C@H]2C[C@@H]2C#Cc2cccc4c2CN(C2CCC(=O)NC2=O)C4=O)C3)ccc1NC(=O)[C@@H]1N[C@@H](CC(C)(C)C)[C@@]2(CNc3cc(Cl)ccc32)[C@H]1c1cccc(Cl)c1F", "note": "(stereo partly drawn) [Example 23, (2′S,3S,4′S,5′R)-6-chloro-4′-(3-chloro-2-fluorophenyl)-N-(4-(2-((1R,2S)-2-((2-(2,6-dioxopiperidin-3-yl)-1-oxoisoindolin-4-yl)ethynyl)cyclopropyl)-7-azaspiro[3.5]nonan-7-yl)-2-methoxyphenyl)-2′-neopentylspiro[indoline-3,3′-pyrrolidine]-5′-carboxamide]", "values": [
      {"measurement": "IC50", "setting": "MDM2", "value": 169, "unit": "nM"},
      {"measurement": "IC50", "setting": "[1]", "value": "> 1000", "unit": "nM"}
    ]},
    {"smiles": "COc1cc(N2CCC([C@@H]3C[C@H]3C#Cc3cccc4c3CN(C3CCC(=O)NC3=O)C4=O)CC2)ccc1NC(=O)[C@@H]1N[C@@H](CC(C)(C)C)[C@@]2(CNc3cc(Cl)ccc32)[C@H]1c1cccc(Cl)c1F", "note": "(stereo partly drawn) [Example 26, (2′S,3S,4′S,5′R)-6-chloro-4′-(3-chloro-2-fluorophenyl)-2′-(2,2-dimethylpropyl)-N-(4-{4-[(1S,2R)-2-{2-[2-(2,6-dioxopiperidin-3-yl)-1-oxo-3H-isoindol-4-yl]ethynyl}cyclopropyl]piperidin-1-yl}-2-methoxyphenyl)-1,2-dihydrospiro[indole-3,3′-pyrrolidine]-5′-carboxamide]", "values": [
      {"measurement": "IC50", "setting": "MDM2", "value": 46.8, "unit": "nM"},
      {"measurement": "IC50", "setting": "[1]", "value": 448, "unit": "nM"}
    ]},
    {"smiles": "COc1cc(C(=O)N2CCN(CC#Cc3cccc4c3CN(C3CCC(=O)NC3=O)C4=O)CC2)ccc1NC(=O)[C@@H]1N[C@@H](CC(C)(C)C)[C@@]2(CNc3cc(Cl)ccc32)[C@H]1c1cccc(Cl)c1F", "note": "(stereo partly drawn) [Example 51, (2′S,3S,4′S,5′R)-6-chloro-4′-(3-chloro-2-fluorophenyl)-2′-(2,2-dimethylpropyl)-N-[4-(4-{3-[2-(2,6-dioxopiperidin-3-yl)-1-oxo-3H-isoindol-4-yl]prop-2-yn-1-yl}piperazine-1-carbonyl)-2-methoxyphenyl]-1,2-dihydrospiro[indole-3,3′-pyrrolidine]-5′-carboxamide]", "values": [
      {"measurement": "IC50", "setting": "MDM2", "value": 1.42, "unit": "nM"},
      {"measurement": "IC50", "setting": "[1]", "value": 18.3, "unit": "nM"}
    ]},
    {"smiles": "COc1cc(C(N)=O)ccc1NC(=O)[C@@H]1N[C@@H](CC(C)(C)C)[C@@]2(CNc3cc(Cl)ncc32)[C@H]1c1cccc(Cl)c1F", "note": "[Example 9, (2S,3S,4S,5R)—N-(4-carbamoyl-2-methoxyphenyl)-6′-chloro-4-(3-chloro-2-fluorophenyl)-2-(2,2-dimethylpropyl)-1′,2′-dihydrospiro[pyrrolidine-3,3′-pyrrolo[3,2-c]pyridine]-5-carboxamide]", "values": [
      {"measurement": "IC50", "setting": "MDM2", "value": 0.58, "unit": "nM"},
      {"measurement": "IC50", "setting": "[1]", "value": 11, "unit": "nM"}
    ]},
    {"smiles": "COc1cc(C(=O)N[C@H]2CCC[C@@H](C#Cc3cccc4c3CN(C3CCC(=O)NC3=O)C4=O)C2)ccc1NC(=O)[C@@H]1N[C@@H](CC(C)(C)C)[C@@]2(CNc3cc(Cl)ccc32)[C@H]1c1cccc(Cl)c1F", "note": "(stereo partly drawn) [Example 32, (2′S,3S,4′S,5′R)-6-chloro-4′-(3-chloro-2-fluorophenyl)-2′-(2,2-dimethylpropyl)-N-(4-{[(1S,3R)-3-{2-[2-(2,6-dioxopiperidin-3-yl)-1-oxo-3H-isoindol-4-yl]ethynyl}cyclohexyl]carbamoyl}-2-methoxyphenyl)-1,2-dihydrospiro[indole-3,3′-pyrrolidine]-5′-carboxamide]", "values": [
      {"measurement": "IC50", "setting": "MDM2", "value": 2.59, "unit": "nM"},
      {"measurement": "IC50", "setting": "[1]", "value": 83.2, "unit": "nM"}
    ]},
    {"smiles": "CC(C)(C)C[C@H]1N[C@H](C(=O)N2CCOc3cc(C(N)=O)ccc32)[C@@H](c2cccc(Cl)c2F)[C@@]12CNc1cc(Cl)ccc12", "note": "[Example 15, 4-((2′R,3R,4′R,5′S)-6-chloro-4′-(3-chloro-2-fluorophenyl)-2′-neopentylspiro[indoline-3,3′-pyrrolidine]-5′-carbonyl)-3,4-dihydro-2H-benzo[b][1,4]oxazine-7-carboxamide]", "values": [
      {"measurement": "IC50", "setting": "MDM2", "value": 638, "unit": "nM"},
      {"measurement": "IC50", "setting": "[1]", "value": "> 1000", "unit": "nM"}
    ]},
    {"smiles": "COc1cc(C(=O)N2CCC3(CC2)C[C@@H]3C#Cc2cccc3c2CN(C2CCC(=O)NC2=O)C3=O)ccc1NC(=O)[C@@H]1N[C@@H](CC(C)(C)C)[C@@]2(CNc3cc(Cl)ccc32)[C@H]1c1cccc(Cl)c1F", "note": "(stereo partly drawn) [Example 44, (2′S,3S,4′S,5′R)-6-chloro-4′-(3-chloro-2-fluorophenyl)-2′-(2,2-dimethylpropyl)-N-{4-[(1S)-1-{2-[2-(2,6-dioxopiperidin-3-yl)-1-oxo-3H-isoindol-4-yl]ethynyl}-6-azaspiro[2.5]octane-6-carbonyl]-2-methoxyphenyl}-1,2-dihydrospiro[indole-3,3′-pyrrolidine]-5′-carboxamide]", "values": [
      {"measurement": "IC50", "setting": "MDM2", "value": 1.83, "unit": "nM"},
      {"measurement": "IC50", "setting": "[1]", "value": 13.1, "unit": "nM"}
    ]},
    {"smiles": "COc1cc(C(=O)N[C@@H]2CCC[C@H](C#Cc3cccc4c3CN(C3CCC(=O)NC3=O)C4=O)C2)ccc1NC(=O)[C@@H]1N[C@@H](CC(C)(C)C)[C@@]2(CNc3cc(Cl)ccc32)[C@H]1c1cccc(Cl)c1F", "note": "(stereo partly drawn) [Example 33, (2′S,3S,4′S,5′R)-6-chloro-4′-(3-chloro-2-fluorophenyl)-2′-(2,2-dimethylpropyl)-N-(4-{[(1R,3S)-3-{2-[2-(2,6-dioxopiperidin-3-yl)-1-oxo-3H-isoindol-4-yl]ethynyl}cyclohexyl]carbamoyl}-2-methoxyphenyl)-1,2-dihydrospiro[indole-3,3′-pyrrolidine]-5′-carboxamide]", "values": [
      {"measurement": "IC50", "setting": "MDM2", "value": 2.29, "unit": "nM"},
      {"measurement": "IC50", "setting": "[1]", "value": 104, "unit": "nM"}
    ]},
    {"smiles": "CC(C)(C)C[C@@H]1N[C@@H](C(=O)N2CCOc3cc(C(N)=O)ccc32)[C@H](c2cccc(Cl)c2F)[C@]12CNc1cc(Cl)ccc12", "note": "[Example 14, 4-((2′S,3S,4′S,5′R)-6-chloro-4′-(3-chloro-2-fluorophenyl)-2′-neopentylspiro[indoline-3,3′-pyrrolidine]-5′-carbonyl)-3,4-dihydro-2H-benzo[b][1,4]oxazine-7-carboxamide]", "values": [
      {"measurement": "IC50", "setting": "MDM2", "value": 114, "unit": "nM"},
      {"measurement": "IC50", "setting": "[1]", "value": "> 1000", "unit": "nM"}
    ]}
  ]
}
